The test system of the test is HBV. As to the kind of experiment: HBV infection in HepG2-NTCP cells (HBeAg AlphaLISA in supernatants). The class given is cell-based. To be noted: Hepatitis B virus, 192 h; HBV infection of HepG2-NTCP cells; HBeAg in supernatants at day 8 post infection; read-out: Cellular EC50. The method, boiled down: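 Readout was day-8 supernatant HBeAg by AlphaLISA, with EC50 set against DMSO controls and binned A<0.1 μM, B 0.1-1 μM, C>1 μM. Compounds were added 2 h before HBV (2000 GE/cell, 4% PEG, 0.5% DMSO) to HepG2-NTCP A3 cells; from day 1 medium held 2.5% DMSO.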
Broadly, the EC50 is the midpoint of the concentration-response curve. In the case of `CN1[C@H](C2CCCCC2)CN(c2ccccc2)c2cc(Cl)c(-c3ncc(C(=O)O)o3)cc2S1(=O)=O` [Example 132, (R)-2-(7-chloro-3-cyclohexyl-2-methyl-1,1-dioxido-5-phenyl-2,3,4,5-tetrahydrobenzo[f][1,2,5]thiadiazepin-8-yl)oxazole-5-carboxylic acid], the EC50 fell in the range of 100 to 1000 nM.

As for `Cc1cc(COc2cc3c(cc2-c2cc(F)c(C(=O)O)s2)S(=O)(=O)N(C)[C@H](C2CCCCC2)CN3c2ccccc2)cs1` [Example 493], the EC50 was in the range of 100 to 1000 nM.

Regarding `CN1[C@H](C2CCC2)CN(c2ccccc2)c2cc(Cl)c(-c3ccc(OC(F)(F)F)c(C(=O)O)c3)cc2S1(=O)=O` [Example 177], the EC50 was less than 100 nM.

Regarding `CN1[C@H](C2CCCCC2)CN(c2ccccc2)c2cc(Cl)c(-c3cccc(C(=O)O)c3Cl)cc2S1(=O)=O` [Example 152, (R)-2-chloro-3-(7-chloro-3-cyclohexyl-2-methyl-1,1-dioxido-5-phenyl-2,3,4,5-tetrahydrobenzo[f][1,2,5]thiadiazepin-8-yl)benzoic acid], the EC50 is greater than 1000 nM.

As to `CN1[C@H](C2CCCCC2)CN(c2ccccc2)c2cc(Cl)c(-c3ccc(Cl)c(C(=O)O)c3)cc2S1(=O)=O` [Example 26], the EC50 is less than 100 nM.

Turning to `CC(C)C[C@@H]1CN(c2ccccc2)c2cc(N3CCc4cccc(F)c43)c(-c3ccc(Cl)c(C(=O)O)c3)cc2S(=O)(=O)N1C` [Example 553], the EC50 fell in the range of 100 to 1000 nM.

In the case of `CCOc1cccc(N2C[C@@H](C3CCCCC3)N(C)S(=O)(=O)c3cc(-c4ccc(F)c(C(=O)O)c4)c(Cl)cc32)c1` [Example 308], the EC50 was less than 100 nM.

For the molecule `CC(C)C[C@@H]1CN(c2ccccc2)c2cc(Cl)c(-c3ccc(C#N)c(C(=O)O)c3)cc2S(=O)(=O)N1C` [Example 187], the EC50 was in the range of 100 to 1000 nM.

For `CC(C)C[C@@H]1CN(c2ccccc2)c2cc(N(C)c3cccc(F)c3)c(-c3ccc(Cl)c(C(=O)O)c3)cc2S(=O)(=O)N1C` [Example 555], the EC50 lay in the range of 100 to 1000 nM.

Regarding `CN1[C@H](C2CCCCC2)CNc2cc(OCC(F)(F)F)c(-c3ccc(Cl)c(C(=O)O)c3)cc2S1(=O)=O` [Example 477], the EC50 is 100 to 1000 nM.

With `Cc1csc(COc2cc3c(cc2-c2cc(F)c(C(=O)O)s2)S(=O)(=O)N(C)[C@H](C2CCCCC2)CN3c2ccccc2)n1` [Example 501], the EC50 is less than 100 nM.

`CN1[C@H](C2CCCCC2)CN(c2ccccc2)c2cc(Cl)c(-c3ccc(NS(=O)(=O)CC4CCC4)c(C(=O)O)c3)cc2S1(=O)=O` [Example 272]: the concentration giving a half-maximal response (EC50) is less than 100 nM.

On to `CC(C)C[C@@H]1CN(c2ccccc2)c2cc(Cl)c(-c3ccc(Cl)c(C(N)=O)c3)cc2S(=O)(=O)N1C` [Example 166], for which the EC50 was greater than 1000 nM.

Take `CC(C)C[C@@H]1CN(c2ccccc2)c2cc(Oc3ccc(C(F)(F)F)cc3)c(-c3ccc(F)c(C(=O)O)c3)cc2S(=O)(=O)N1C` [Example 426]: the EC50 fell in the range of 100 to 1000 nM.

Regarding `O=C(O)c1cc(-c2cc3c(cc2F)N(c2ccccc2)CC2c4ccccc4CN2S3(=O)=O)ccc1F` (centres unmarked) [Example 4], the concentration giving a half-maximal response (EC50) was 100 to 1000 nM.

In the case of `CC(C)C[C@@H]1CN(c2ccccc2)c2cc(OC34CC5CC(CC(C5)C3)C4)c(-c3ccc(F)c(C(=O)O)c3)cc2S(=O)(=O)N1C` [Example 441], the EC50 was less than 100 nM.

For the molecule `CN1[C@H](C2CCCCC2)CN(c2cc(F)cc(F)c2F)c2cc(Cl)c(-c3ccc(F)c(C(=O)O)c3)cc2S1(=O)=O` [Example 299], the EC50 was 100 to 1000 nM.

In the case of `CC(C)C[C@@H]1CN(c2ccccc2)c2cc(C3CCN(C(=O)OC(C)(C)C)CC3)c(-c3ccc(F)c(C(=O)O)c3)cc2S(=O)(=O)N1C` [Example 592], the EC50 lay within 100 to 1000 nM.

Take `CN1[C@H](C2CCCCC2)CN(c2ccccc2)c2cc(Oc3ccncc3)c(-c3ccc(F)c(C(=O)O)c3)cc2S1(=O)=O` [Example 416]: the EC50 was greater than 1000 nM.

With `CN1[C@H](C2COC2)CN(c2ccccc2)c2cc(Cl)c(-c3ccc(F)c(C(=O)O)c3)cc2S1(=O)=O` [Example 106], the EC50 is greater than 1000 nM.

With `CN1[C@H](C2CCCCC2)CN(c2ccccc2)c2cc(Cl)c(-c3ccc(C(=O)O)s3)cc2S1(=O)=O` [Example 130, (R)-5-(7-chloro-3-cyclohexyl-2-methyl-1,1-dioxido-5-phenyl-2,3,4,5-tetrahydrobenzo[f][1,2,5]thiadiazepin-8-yl)thiophene-2-carboxylic acid], the 50% effective concentration (EC50) is less than 100 nM.

With `CC(=O)N1CCN(c2cc3c(cc2-c2ccc(F)c(C(=O)O)c2)S(=O)(=O)N(C)[C@H](C2CCCCC2)CN3c2ccccc2)CC1` [Example 535], the EC50 was 100 to 1000 nM.

As to `CC(C)C[C@@H]1CN(c2ccccc2)c2cc(OC3(C)CCCC3)c(-c3ccc(Cl)c(C(=O)O)c3)cc2S(=O)(=O)N1C` [Example 454], the EC50 is less than 100 nM.

With `CN1[C@H](C2CCCCC2)CN(c2cccc(OCC(F)(F)F)c2)c2cc(Cl)c(-c3ccc(F)c(C(=O)O)c3)cc2S1(=O)=O` [Example 313], the EC50 was less than 100 nM.

For `CN1[C@H](C2CCCCC2)CN(c2ccccc2)c2cc(Cl)c(-c3cc(C(=O)O)ccn3)cc2S1(=O)=O` [Example 139, (R)-2-(7-chloro-3-cyclohexyl-2-methyl-1,1-dioxido-5-phenyl-2,3,4,5-tetrahydrobenzo[f][1,2,5]thiadiazepin-8-yl)isonicotinic acid], the concentration giving a half-maximal response (EC50) was 100 to 1000 nM.

For `CCCCC[C@@H]1CN(c2ccccc2)c2cc(Cl)c(-c3ccc(F)c(C(=O)O)c3)cc2S(=O)(=O)N1C` [Example 70], the 50% effective concentration (EC50) is greater than 1000 nM.

Consider `CN1[C@H](C2CCCCC2)CN(c2ccccc2)c2cc(Cl)c(-c3cc(NC(=O)OCC4CC4)c(C(=O)O)s3)cc2S1(=O)=O` [Example 252], for which the EC50 is less than 100 nM.

With `CN1[C@H](Cc2ccc(Cl)cc2)CN(c2ccccc2)c2cc(Cl)c(-c3ccc(F)c(C(=O)O)c3)cc2S1(=O)=O` [Example 49], the EC50 was greater than 1000 nM.

In the case of `Cc1c(C(=O)O)cccc1-c1cc2c(cc1Cl)N(c1ccccc1)C[C@@H](C1CCCCC1)N(C)S2(=O)=O` [Example 144, (R)-3-(7-chloro-3-cyclohexyl-2-methyl-1,1-dioxido-5-phenyl-2,3,4,5-tetrahydrobenzo[f][1,2,5]thiadiazepin-8-yl)-2-methylbenzoic acid], the EC50 was greater than 1000 nM.

For `O=C(O)c1cc(-c2cc3c(cc2Cl)N(c2ccccc2)C[C@@H](C2CCCCC2)NS3(=O)=O)ccc1F` [Example 58], the EC50 is 100 to 1000 nM.

Take `COc1cc2c(cc1-c1cccc(C(=O)O)c1)S(=O)(=O)N(C)[C@@H](Cc1ccc(Cl)cc1)CN2c1ccccc1` [Example 17]: the EC50 is greater than 1000 nM.

On to `CN1[C@H](CC(C)(C)C)CN(c2ccccc2)c2cc(Cl)c(-c3ccc(F)c(C(=O)O)c3)cc2S1(=O)=O` [Example 50], for which the EC50 was in the range of 100 to 1000 nM.

`CC(C)C[C@@H]1CN(c2ccccc2)c2cc(Cl)c(-c3cccc(S(=O)(=O)O)c3)cc2S(=O)(=O)N1C` [Example 230]: the EC50 lay within 100 to 1000 nM.

For the molecule `CCCCCCN1C[C@@H](C2CCCCC2)N(C)S(=O)(=O)c2cc(-c3ccc(F)c(C(=O)O)c3)c(Cl)cc21` [Example 324], the EC50 was 100 to 1000 nM.

For `COC(C)(C)CCOC(=O)Nc1cc(-c2cc3c(cc2Cl)N(c2ccccc2)C[C@@H](C2CCCCC2)N(C)S3(=O)=O)sc1C(=O)O` [Example 261], the EC50 fell in the range of 100 to 1000 nM.

As to `CC(C)C[C@@H]1CN(c2ccccc2)c2cc(OCC3CCCN3C)c(-c3ccc(F)c(C(=O)O)c3)cc2S(=O)(=O)N1C` (some centres unmarked) [Example 449], the EC50 was greater than 1000 nM.

For the molecule `CN1[C@H](C2CCCCC2)CNc2cc(-c3cccnc3)c(-c3ccc(F)c(C(=O)O)c3)cc2S1(=O)=O` [Example 572], the EC50 was 100 to 1000 nM.

With `CC(C)C[C@@H]1CN(c2ccccc2)c2cc(Cl)c(-c3ccc(C(F)F)c(C(=O)O)c3)cc2S(=O)(=O)N1C` [Example 165], the EC50 is 100 to 1000 nM.

As for `CC(C)[C@@H]1CN(c2ccccc2)c2cc(Cl)c(-c3ccc(Cl)c(C(=O)O)c3)cc2S(=O)(=O)N1C` [Example 62], the EC50 was less than 100 nM.

`CC(C)C[C@@H]1CN(c2ccccc2)c2cc(Cl)c(-c3ccc(F)c(C(=O)O)c3)cc2S(=O)(=O)N1C` [Example 59, (R)-5-(7-chloro-3-isobutyl-2-methyl-1,1-dioxido-5-phenyl-2,3,4,5-tetrahydrobenzo[f][1,2,5]thiadiazepin-8-yl)-2-fluorobenzoic acid]: the EC50 is less than 100 nM.

Regarding `CN1[C@H](C2CCCCC2)CN(c2ccccc2)c2cc(OCc3cscc3F)c(-c3cc(F)c(C(=O)O)s3)cc2S1(=O)=O` [Example 488], the EC50 was less than 100 nM.

As to `CN1[C@H](C2CCCCC2)CN(c2ccccc2)c2cc(OCc3ccsc3Cl)c(-c3cc(F)c(C(=O)O)s3)cc2S1(=O)=O` [Example 489], the EC50 was less than 100 nM.

Regarding `CC(C)[C@@H]1CN(c2ccccc2)c2cc(Cl)c(-c3cc(F)c(F)c(C(=O)O)c3)cc2S(=O)(=O)N1C` [Example 63], the EC50 was less than 100 nM.

As to `CN1C(CC2CCCC2)CN(c2ccccc2)c2cc(Cl)c(-c3ccc(Cl)c(C(=O)O)c3)cc2S1(=O)=O` (centres unmarked) [Example 78], the EC50 lay in the range of 100 to 1000 nM.

For `CC(Oc1cc2c(cc1-c1ccc(F)c(C(=O)O)c1)S(=O)(=O)N(C)[C@H](C1CCCCC1)CN2c1ccccc1)c1ccsc1` (some centres unmarked) [Example 337], the EC50 was less than 100 nM.

For the molecule `CN1[C@H](C2CCCCC2)CN(c2ccccc2)c2cc(Cl)c(-c3cc(C(=O)O)n(C)n3)cc2S1(=O)=O` [Example 134], the EC50 is less than 100 nM.

Regarding `CN1[C@H](C2CCCCC2)CN(c2ccccc2)c2cc(Cl)c(-c3cccc(C(=O)C(=O)O)c3)cc2S1(=O)=O` [Example 207], the EC50 was less than 100 nM.

As to `CC(C)CC1CN(c2ccccc2)c2cc(Cl)c(-c3cc(F)cc(C(=O)O)c3)cc2S(=O)(=O)N1C` (centres unmarked) [Example 36], the EC50 was 100 to 1000 nM.

For the molecule `CC(C)CC1CN(C2CC2)c2cc(Cl)c(-c3cccc(C(=O)O)c3)cc2S(=O)(=O)N1C` (centres unmarked) [Example 327], the EC50 lay in the range of 100 to 1000 nM.

As for `CC(C)C[C@@H]1CN(c2ccccc2)c2cc(OC3CC4(COC4)C3)c(-c3ccc(F)c(C(=O)O)c3)cc2S(=O)(=O)N1C` [Example 444], the EC50 fell in the range of 100 to 1000 nM.

These data come from US20240368096A1 (Enanta Pharmaceuticals, Inc., priority 2022, published 2024).
